US8952024B2, “Herbicidal pyrimidone derivatives” (E I du Pont de Nemours and Company, priority 2009, dated 2015)

Tests used:
Format in all cases: in vivo
[1] = tested on: umbrella sedge (Cyperus difformis); test: Test B flooded paddy test; settings: for Plant response rating, Flood, Sedge, Umbrella: 250 g ai/ha, flooded paddy test, visual rating on 0 to 100 scale (0 no effect, 100 complete control) after 13 to 15 days; for Plant response rating, Sedge, Umbrella: Flood (flooded paddy test), 13 to 15 days; for Sedge, Umbrella plant response rating: Flood, 31 g ai/ha, scale 0 to 100 (0 no effect, 100 complete control)
How it was run: (§1)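 Greenhouse-held for 13 to 15 days, treated pots were compared visually with controls and scored 0–100 (0, no effect). Treatment had been made into paddy water kept at 3 cm above the soil, with plants at the 2-leaf stage.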

[2] = tested on: ducksalad (Heteranthera limosa); test: Test B flooded paddy test; settings: for Plant response rating, Flood, Ducksalad: 250 g ai/ha, flooded paddy test, visual rating on 0 to 100 scale (0 no effect, 100 complete control) after 13 to 15 days; for Plant response rating, Ducksalad: Flood (flooded paddy test), 13 to 15 days; for Ducksalad plant response rating: Flood, 31 g ai/ha, scale 0 to 100 (0 no effect, 100 complete control)
How it was run: as §1

rice (Oryza sativa) = test: Test B flooded paddy test; settings: for Plant response rating, Flood, Rice: 250 g ai/ha, flooded paddy test, visual rating on 0 to 100 scale (0 no effect, 100 complete control) after 13 to 15 days; for Plant response rating, Rice: Flood (flooded paddy test), 13 to 15 days; for Rice plant response rating: Flood, 31 g ai/ha, scale 0 to 100 (0 no effect, 100 complete control)
How it was run: as §1

[3] = tested on: barnyardgrass (Echinochloa crus-galli); test: Test B flooded paddy test; settings: for Plant response rating, Flood, Barnyardgrass: 250 g ai/ha, flooded paddy test, visual rating on 0 to 100 scale (0 no effect, 100 complete control) after 13 to 15 days; for Plant response rating, Barnyardgrass: Flood (flooded paddy test), 13 to 15 days; for Barnyardgrass plant response rating: Flood, 31 g ai/ha, scale 0 to 100 (0 no effect, 100 complete control)
How it was run: as §1

[4] = tested on: giant foxtail (Setaria faberii); test: Test A pre-/postemergence plant response; settings: for Foxtail, Giant plant response rating: visual injury, 0 to 100 scale (0 no effect, 100 complete control), approx. ten days
How it was run: (§2)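 Formulated test chemicals (non-phytotoxic solvent, surfactant) were sprayed onto soil right after planting and simultaneously onto young plants at one to two leaves, 2 to 10 cm tall. Plants stayed in the greenhouse about ten days; injury was then visually scored against untreated controls, from 0 (no effect) to 100 (complete control).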

corn (Zea mays) = test: Test A pre-/postemergence plant response; settings: for Corn plant response rating: visual injury, 0 to 100 scale (0 no effect, 100 complete control), approx. ten days
How it was run: as §2

[5] = tested on: large crabgrass (Digitaria sanguinalis); test: Test A pre-/postemergence plant response; settings: for Crabgrass, Large plant response rating: visual injury, 0 to 100 scale (0 no effect, 100 complete control), approx. ten days
How it was run: as §2

[6] = tested on: pigweed (Amaranthus retroflexus); test: Test A pre-/postemergence plant response; settings: for Pigweed plant response rating: visual injury, 0 to 100 scale (0 no effect, 100 complete control), approx. ten days
How it was run: as §2

[7] = tested on: velvetleaf (Abutilon theophrasti); test: Test A pre-/postemergence plant response; settings: for Velvetleaf plant response rating: visual injury, 0 to 100 scale (0 no effect, 100 complete control), approx. ten days
How it was run: as §2

[8] = tested on: morningglory (Ipomoea spp.); test: Test A pre-/postemergence plant response; settings: for Morningglory plant response rating: visual injury, 0 to 100 scale (0 no effect, 100 complete control), approx. ten days
How it was run: as §2

[9] = tested on: barnyardgrass (Echinochloa crus-galli); test: Test A pre-/postemergence plant response; settings: for Barnyardgrass plant response rating: visual injury, 0 to 100 scale (0 no effect, 100 complete control), approx. ten days
How it was run: as §2

[10] = tested on: wheat (Triticum aestivum); test: Test A pre-/postemergence plant response; settings: for Wheat plant response rating: visual injury, 0 to 100 scale (0 no effect, 100 complete control), approx. ten days
How it was run: as §2

[11] = 62 g ai/ha, scale of 0 to 100 where 0 is no effect and 100 is complete control
[12] = 125 g ai/ha, scale 0 to 100, 0 is no effect, 100 is complete control
[13] = Postemergence, 125 g ai/ha, 0 to 100 scale where 0 is no effect and 100 is complete control
[14] = Preemergence, 125 g ai/ha, 0 to 100 scale, 0 = no effect, 100 = complete control
[15] = Preemergence, 500 g ai/ha, 0 to 100 scale, 0 = no effect, 100 = complete control

Cc1cccc(-c2ncc(C(=O)C3=C(O)CCCC3=O)c(=O)n2-c2ccc(F)cc2C)c1 [Compound 192]
Plant response rating, Flood, Sedge, Umbrella [1]: 60
Plant response rating, Sedge, Umbrella [1, 11]: 40
Plant response rating, Sedge, Umbrella [1, 12]: 50
Sedge, Umbrella plant response rating [1]: 0
Plant response rating, Flood, Ducksalad [2]: 75
Plant response rating, Ducksalad [2, 11]: 60
Plant response rating, Ducksalad [2, 12]: 75
Ducksalad plant response rating [2]: 60
Plant response rating, Flood, Rice (rice (Oryza sativa)): 20
Plant response rating, Rice (rice (Oryza sativa); [11]): 0
Plant response rating, Rice (rice (Oryza sativa); [12]): 0
Rice plant response rating (rice (Oryza sativa)): 0
Plant response rating, Flood, Barnyardgrass [3]: 0
Plant response rating, Barnyardgrass [3, 11]: 0
Plant response rating, Barnyardgrass [3, 12]: 0
Barnyardgrass plant response rating [3]: 0
Plant response rating, Foxtail, Giant [4, 13]: 50
Foxtail, Giant plant response rating ([4]; Postemergence, 500 g ai/ha): 70
Plant response rating, Foxtail, Giant [4, 14]: 0
Plant response rating, Foxtail, Giant [4, 15]: 40
Plant response rating, Corn (corn (Zea mays); [13]): 0
Corn plant response rating (corn (Zea mays); Postemergence, 500 g ai/ha): 40
Plant response rating, Corn (corn (Zea mays); [14]): 40
Plant response rating, Corn (corn (Zea mays); [15]): 40
Plant response rating, Crabgrass, Large [5, 13]: 30
Crabgrass, Large plant response rating ([5]; Postemergence, 500 g ai/ha): 80
Plant response rating, Crabgrass, Large [5, 14]: 10
Plant response rating, Crabgrass, Large [5, 15]: 40
Plant response rating, Pigweed [6, 13]: 60
Pigweed plant response rating ([6]; Postemergence, 500 g ai/ha): 80
Plant response rating, Pigweed [6, 14]: 0
Plant response rating, Pigweed [6, 15]: 50
Plant response rating, Velvetleaf [7, 13]: 70
Velvetleaf plant response rating ([7]; Postemergence, 500 g ai/ha): 100
Plant response rating, Velvetleaf [7, 14]: 0
Plant response rating, Velvetleaf [7, 15]: 60
Morningglory plant response rating ([8]; Postemergence, 500 g ai/ha): 70
Plant response rating, Morningglory [8, 14]: 0
Plant response rating, Morningglory [8, 15]: 0
Plant response rating, Barnyardgrass [9, 13]: 60
Barnyardgrass plant response rating ([9]; Postemergence, 500 g ai/ha): 90
Plant response rating, Barnyardgrass [9, 14]: 10
Plant response rating, Barnyardgrass [9, 15]: 30
Plant response rating, Wheat [10, 13]: 0
Wheat plant response rating ([10]; Postemergence, 500 g ai/ha): 0
Plant response rating, Wheat [10, 14]: 0
Plant response rating, Wheat [10, 15]: 20

COc1cccc(-c2ncc(C(=O)C3=C(O)CCCC3=O)c(=O)n2C2CCCCC2)c1 [Compound 196]
Plant response rating, Flood, Sedge, Umbrella [1]: 80
Plant response rating, Sedge, Umbrella [1, 11]: 30
Plant response rating, Sedge, Umbrella [1, 12]: 75
Sedge, Umbrella plant response rating [1]: 20
Plant response rating, Flood, Ducksalad [2]: 95
Plant response rating, Ducksalad [2, 11]: 60
Plant response rating, Ducksalad [2, 12]: 95
Ducksalad plant response rating [2]: 40
Plant response rating, Flood, Rice (rice (Oryza sativa)): 65
Plant response rating, Rice (rice (Oryza sativa); [11]): 0
Plant response rating, Rice (rice (Oryza sativa); [12]): 40
Rice plant response rating (rice (Oryza sativa)): 0
Plant response rating, Flood, Barnyardgrass [3]: 30
Plant response rating, Barnyardgrass [3, 11]: 0
Plant response rating, Barnyardgrass [3, 12]: 20
Barnyardgrass plant response rating [3]: 0
Plant response rating, Foxtail, Giant [4, 13]: 70
Foxtail, Giant plant response rating ([4]; Postemergence, 500 g ai/ha): 100
Plant response rating, Foxtail, Giant [4, 14]: 0
Plant response rating, Foxtail, Giant [4, 15]: 80
Plant response rating, Corn (corn (Zea mays); [13]): 10
Corn plant response rating (corn (Zea mays); Postemergence, 500 g ai/ha): 40
Plant response rating, Corn (corn (Zea mays); [14]): 0
Plant response rating, Corn (corn (Zea mays); [15]): 20
Plant response rating, Crabgrass, Large [5, 13]: 50
Crabgrass, Large plant response rating ([5]; Postemergence, 500 g ai/ha): 90
Plant response rating, Crabgrass, Large [5, 14]: 0
Plant response rating, Crabgrass, Large [5, 15]: 70
Plant response rating, Pigweed [6, 13]: 80
Pigweed plant response rating ([6]; Postemergence, 500 g ai/ha): 100
Plant response rating, Pigweed [6, 14]: 0
Plant response rating, Pigweed [6, 15]: 30
Plant response rating, Velvetleaf [7, 13]: 100
Velvetleaf plant response rating ([7]; Postemergence, 500 g ai/ha): 100
Plant response rating, Velvetleaf [7, 14]: 0
Plant response rating, Velvetleaf [7, 15]: 50
Plant response rating, Morningglory [8, 13]: 100
Morningglory plant response rating ([8]; Postemergence, 500 g ai/ha): 100
Plant response rating, Morningglory [8, 14]: 0
Plant response rating, Morningglory [8, 15]: 40
Plant response rating, Barnyardgrass [9, 13]: 80
Barnyardgrass plant response rating ([9]; Postemergence, 500 g ai/ha): 90
Plant response rating, Barnyardgrass [9, 14]: 0
Plant response rating, Barnyardgrass [9, 15]: 50
Plant response rating, Wheat [10, 13]: 0
Wheat plant response rating ([10]; Postemergence, 500 g ai/ha): 30
Plant response rating, Wheat [10, 14]: 0
Plant response rating, Wheat [10, 15]: 20
